Test results taken from BigSolDB 2.1.

CC(=O)N[C@H](C(=O)O)C(C)C
solubility (mole fraction)
Details | 283.15 K | 288.15 K | 293.15 K | 298.15 K | 303.15 K | 308.15 K | 313.15 K | 318.15 K | 323.15 K | 328.15 K
in 1,4-dioxane | – | 0.0324 | 0.0363 | 0.0427 | 0.0495 | 0.06 | 0.0712 | 0.0805 | 0.0921 | 0.109
in 2-butanone | 0.00606 | 0.00748 | 0.00907 | 0.0112 | 0.0141 | 0.0176 | 0.021 | 0.0245 | 0.0292 | –
in acetone | 0.0102 | 0.0133 | 0.0163 | 0.0196 | 0.0238 | 0.0284 | 0.0333 | 0.039 | 0.0437 | –
in acetonitrile | 0.00204 | 0.0026 | 0.00352 | 0.00464 | 0.0055 | 0.00668 | 0.00792 | 0.00909 | 0.0105 | –
in dimethyl carbonate | 0.00116 | 0.00139 | 0.00169 | 0.0021 | 0.00261 | 0.00331 | 0.00395 | 0.00489 | 0.00611 | –
in ethyl acetate | 0.00279 | 0.00342 | 0.00403 | 0.00487 | 0.006 | 0.00718 | 0.00847 | 0.01 | 0.0119 | –
in isobutanol | 0.0341 | 0.0396 | 0.0465 | 0.0566 | 0.0648 | 0.0777 | 0.0881 | 0.101 | 0.114 | –
in isopropanol | 0.0401 | 0.048 | 0.0558 | 0.0662 | 0.0782 | 0.091 | 0.104 | 0.12 | 0.134 | –
in methyl acetate | 0.00339 | 0.00393 | 0.00485 | 0.0058 | 0.00694 | 0.0082 | 0.00972 | 0.0112 | 0.0128 | –
in n-butanol | 0.0371 | 0.0428 | 0.0506 | 0.0595 | 0.0685 | 0.0786 | 0.0902 | 0.104 | 0.115 | –
in n-propanol | 0.0449 | 0.0512 | 0.06 | 0.0747 | 0.0876 | 0.111 | 0.13 | 0.151 | 0.171 | –
in water | 0.00557 | 0.00611 | 0.0066 | 0.00748 | 0.00872 | 0.01 | 0.0116 | 0.0137 | 0.0159 | –
